The assay is described as follows: Trained sensory panel rating of sweetness intensity and bitterness intensity of glycoside solutions. The conditions noted are these: panel average; for Bitterness: scale 1-15 (caffeine standards); for Sweetness: scale 1-15 (sucrose standards). Type of assay: in vivo, human. As for the experimental part: A 20 person sensory panel was trained to scale sweetness and bitterness. Reference tasting standards were prepared by dissolving respective standard material (sucrose for sweetness and caffeine for bitterness) into reverse osmosis water according to the scale values shown in Table 1 below.
The trained sensory panel evaluated pure and blended solutions of rebaudioside A, rebaudioside B, and rebaudioside D at ratios and concentrations shown in the tables and in FIGS. 1-4. Solutions were made in Evian® water. All solutions were heated to 47° C. for 10 minutes to ensure that all the glycoside material was completely dissolved. The solutions were allowed to cool to room temperature before serving to the panelists. Each solution was given a random 3-digit code and was served to the panelists in random order. Panelists dispensed 1 mL of each solution into their mouths from a pipette. The panelists were then asked to rate the “sweetness intensity” and “bitterness intensity” of the solutions and mark their responses on an un-anchored, 15 cm line ballot. The length of the line directly corresponded to the scale values (1-15) on which the participants were trained.
In order to prepare the panelists' palates, a control solution of commercial rebiana (300 ppm) was the first sample each panelist tasted during a sitting. In between testing samples, the panelists cleansed their palates with water and apple slices. The panelists also waited 5 minutes between each sample. The panelists' responses were measured, compiled, and averaged for each sample.
The figures show the concentration of the blend tested (ppm) as well as the ratio of one glycoside to another in the blend as a percentage. Each blend's sweetness and bitterness was measured by the trained panel. The blend's sweetness is measured as SEV.
Each blend was then compared to an isosweet concentration of the pure glycosides. This value represents the concentration of the pure glycoside needed to achieve the SEV value measured for the blend. Thus, if the value is greater than that of the blend, then a larger concentration of the pure glycoside would be needed to achieve the same sweetness as achieved by the blend (at the lower dosage). The tables also include an isosweet bitterness value for each pure glycoside. This value represents the intensity of bitterness measured for that concentration of pure glycoside. The concentration of the isosweet solution of rebaudioside A, rebaudioside B, or rebaudioside D and the bitterness of the isosweet solutions were calculated by a fit of the pure component sensory response (table 2) to standard psycho-sensory models.

Here are results for two molecules from patent US20130309389A1, “GLYCOSIDE BLENDS” (CARGILL, INCORPORATED, priority 2010, published 2013).

For `C=C1C[C@@]23CC[C@H]4[C@@](C)(CCC[C@@]4(C)C(=O)O[C@@H]4O[C@H](CO)[C@@H](O)[C@H](O)[C@H]4O)[C@@H]2CC[C@]1(O[C@@H]1O[C@H](CO)[C@@H](O)[C@H](O[C@@H]2O[C@H](CO)[C@@H](O)[C@H](O)[C@H]2O)[C@H]1O[C@@H]1O[C@H](CO)[C@@H](O)[C@H](O)[C@H]1O)C3` [Reb A, Rebaudioside A], the Bitterness runs as follows: (114 ppm in Evian water) 4.2; (229 ppm in Evian water) 5.3; (343 ppm in Evian water) 6.6; (457 ppm in Evian water) 7.0; (571 ppm in Evian water) 8.4; (800 ppm in Evian water) 9.0. Moreover, the Sweetness stood at 3.1 (114 ppm in Evian water); 5.7 (229 ppm in Evian water); 7.4 (343 ppm in Evian water); 8.4 (457 ppm in Evian water); 9.2 (571 ppm in Evian water); 10.1 (800 ppm in Evian water).

In the case of `C=C1C[C@@]23CC[C@H]4[C@@](C)(CCC[C@@]4(C)C(=O)O)[C@@H]2CC[C@]1(O[C@@H]1O[C@H](CO)[C@@H](O)[C@H](O[C@@H]2O[C@H](CO)[C@@H](O)[C@H](O)[C@H]2O)[C@H]1O[C@@H]1O[C@H](CO)[C@@H](O)[C@H](O)[C@H]1O)C3` [Reb B, Rebaudioside B], the Bitterness runs as follows: (57 ppm in Evian water) 3.9; (114 ppm in Evian water) 4.2; (171 ppm in Evian water) 4.3; (286 ppm in Evian water) 5.0; (343 ppm in Evian water) 5.1; (400 ppm in Evian water) 5.8. For the same molecule, the Sweetness runs as follows: (57 ppm in Evian water) 1.8; (114 ppm in Evian water) 2.7; (171 ppm in Evian water) 3.6; (286 ppm in Evian water) 5.8; (343 ppm in Evian water) 6.5; (400 ppm in Evian water) 7.6.
